Measured values published in US11767314B2, “Bioenergetic nicotinic acid glycerol esters, compositions and methods of using same” (Conopco, Inc., priority 2018, dated 2023).
Entries after “also recorded” stand apart in the source; their conditions may differ.

Tested on: Human dermal fibroblasts F5140616B1
Assay: Effect of NAEs on AMP/ATP Ratio in Fibroblast Cells (metabolites by LC/MS)
Format: cell-based
Parameters: AMP/ATP Ratio: scale not given here
Details: for AMP/ATP Ratio / Increase Over Vehicle (AMP/ATP ratio): 500 uM, fibroblasts treated every other day for 6 days; for AMP/ATP Ratio: vehicle (ethanol) 367; for Increase Over Vehicle (AMP/ATP ratio): vs ethanol vehicle; for AMP/ATP ratio, result in words: fibroblast cells, 500 uM where stated
Experimental: The experiments in this Example 2 were conducted in the following manner.
Method for Treatment of Fibroblasts with Bioenergetic Compounds
Human dermal fibroblasts F5140616B1 (MatTek Corporation, Ashland, Mass.) were derived from a donor and cultured in DMEM media (ThermoFisher Cat #31053-036) supplemented with FBS (Hyclone/Fisher Scientific Cat #SH30007103), glutamine (ThermoFisher Cat #35050-61) and sodium pyruvate (ThermoFisher Cat #11360-070). At the third passage, the cells were detached from the culture vessels using Trypsin/EDTA (T/E) solution (0.25 mg/mL) (Lonza Cat #CC-5012) and used for experimentation.
Cells were treated with the compounds every other day for a total of 6 days. Treatment involved removal of the spent media+compounds and replenishment with fresh media+compounds. At the end of the experiment, the cells were detached from the culture vessels using the standard procedure outlined above. The cells were centrifuged and then washed 1× with Dulbecco's PBS with no calcium or magnesium (ThermoFisher Cat #14190144) and then accurate cell counts were taken using a Scepter cell counter (EMD Millipore). The cells were then split equally into 2 Eppendorf tubes, and centrifuged. Excess PBS was then removed from the resulting cell pellets. The pellets were then immediately frozen on dry ice and sent to an external laboratory for analysis of metabolites by LC/MS.

SMILES: CC(=O)O[C@@H]1[C@@H](CO)OC([n+]2cccc(C(N)=O)c2)[C@@H]1OC(C)=O.O=S(=O)([O-])C(F)(F)F (stereo partly drawn) [JR1, 3-carbamoyl-1-((3R,4R,5R)-3,4-diacetoxy-5-(hydroxymethyl)tetrahydrofuran-2-yl)pyridin-1-ium trifluoromethanesulfonate]
- AMP/ATP Ratio: 756
- Increase Over Vehicle (AMP/ATP ratio): 106%

SMILES: CCCC(=O)O[C@@H]1[C@@H](CO)OC([n+]2cccc(C(N)=O)c2)[C@@H]1OC(=O)CCC.O=S(=O)([O-])C(F)(F)F (stereo partly drawn) [JR2, 1-((3R,4R,5R)-3,4-bis(butyryloxy)-5-(hydroxymethyl)tetrahydrofuran-2-yl)-3-carbamoylpyridin-1-ium trifluoromethanesulfonate]
- AMP/ATP Ratio: 919
- Increase Over Vehicle (AMP/ATP ratio): 150%

SMILES: CC(=O)O[C@@H]1[C@@H](CO)OC(N2C=CCC(C(N)=O)=C2)[C@@H]1OC(C)=O (stereo partly drawn) [JR3, (3R,4R,5R)-2-(3-carbamoylpyridin-1(4H)-yl)-5-(hydroxymethyl) tetrahydrofuran-3,4-diyl diacetate]
- AMP/ATP Ratio: 1231
- Increase Over Vehicle (AMP/ATP ratio): 235%

SMILES: NC(=O)c1cccnc1 [Nicotinamide, reference compound]
- AMP/ATP Ratio: 529
- Increase Over Vehicle (AMP/ATP ratio): 44%
- AMP/ATP ratio, result in words: somewhat elevated levels of AMP/ATP ratio over control vehicle

SMILES: CC1(C)OCC(COC(=O)c2cccnc2)O1 (stereo not shown) [VC1, (2,2-dimethyl-1,3-dioxolan-4-yl)methyl nicotinate]
- AMP/ATP Ratio: 1010
- Increase Over Vehicle (AMP/ATP ratio): 175%
- AMP/ATP ratio, result in words: increased AMP/ATP ratio in testing; also recorded: notably increase the AMP/ATP ratio; also recorded: significantly elevated levels of AMP/ATP ratio over both, control vehicle and nicotinamide; also recorded: increase in the levels of AMP/ATP ratio; also recorded: demonstrably increased AMP/ATP ratio

SMILES: O=C(OCC(O)CO)c1cccnc1 (stereo not shown) [VC2, 2,3-dihydroxypropyl nicotinate]
- AMP/ATP ratio, result in words: increased AMP/ATP ratio in testing; also recorded: notably increase the AMP/ATP ratio; also recorded: increase in the levels of AMP/ATP ratio; also recorded: demonstrably increased AMP/ATP ratio

SMILES: CC1(C)OCC(OC(=O)c2cccnc2)CO1 [VC4, 2,2-dimethyl-1,3-dioxan-5-yl nicotinate]
- AMP/ATP Ratio: 941
- Increase Over Vehicle (AMP/ATP ratio): 156%
- AMP/ATP ratio, result in words: increased AMP/ATP ratio in testing; also recorded: notably increase the AMP/ATP ratio; also recorded: significantly elevated levels of AMP/ATP ratio over both, control vehicle and nicotinamide; also recorded: demonstrably increased AMP/ATP ratio
